Literature values, collected in US20100028446A1, “TRANSPORT OF DRUGS VIA THE BLOOD-BRAIN BARRIER BY MEANS OF APOLIPOPROTEINS” (priority 2007, published 2010).

Details: loaded on hydrophilic-protein nanoparticles coupled with apolipoprotein E

In the case of Dalargin, the “transport across the blood-brain barrier” value is given as “successfully transported across the blood-brain barrier”.
